According to patent US20220133747A1, “ESTROGEN RECEPTOR INHIBITORS AND USES THEROF” (The Regents of the University of California, priority 2018, published 2022):

Key:
[1] = tested on: ER-dependent transcription; test: ERE-luciferase T47D reporter, ER-dependent transcriptional activity; type: cell-based, human; conditions: E2 alone, 2 nM
Experimental: (§1) FIGS. 20A-20C show biologic activity of selected SERD candidates. […] ER-positive MCF-7 cells were treated in phenol-red free RPMI 1640 without FBS and containing vehicle control (CON) or 100 nM concentrations of either fulvestrant (FX) or antiestrogens 105, 109, 121, 140, 151, 160 or SERD128 in vitro. After 4 hours, cells were harvested and processed for PAGE and Western immunoblots using ERα antibody (1D5, Thermofisher Scientific). RPL13A was used as a loading control. […] Cells were dosed with either E2 alone or with SERDs combined with E2 in phenol redfree medium with 0.1% dextran-coated charcoal-treated FBS in luminometer plates. Data are presented as relative light units (RLU) relative to that of E2 alone in three replicate assays (4 wells per replicate) f SEM. Treatment with E2 alone induced a 12-fold induction of ER-dependent luciferase activity quantified as RLU relative to vehicle control-treated samples.
A stable ER-positive T47D ERE luciferase reporter cell line, in which the ERE and the reporter luciferase gene are consistently expressed in the cell line were used in this study (Signosis). […] Lysate was mixed 1:1 with luciferase substrate (Promega), and luminescence was measured using a MLX microtiter plate luminometer (Dynex) and quantified as relative light units (RLU) according to established procedures. Total protein was quantified using BioRad Protein Assay (BioRad).

[2] = target: T1, ERα (Homo sapiens, UniProt P03372); test: Downregulation of ER protein, PAGE and Western immunoblot in MCF-7 cells; type: cell-based; conditions: 100 nM, 4 hours, phenol-red free medium without FBS
T1 construct: endogenous in cells; host or cells: MCF-7 human breast cancer cells (ATCC)
T1 sequence (P03372 1-595): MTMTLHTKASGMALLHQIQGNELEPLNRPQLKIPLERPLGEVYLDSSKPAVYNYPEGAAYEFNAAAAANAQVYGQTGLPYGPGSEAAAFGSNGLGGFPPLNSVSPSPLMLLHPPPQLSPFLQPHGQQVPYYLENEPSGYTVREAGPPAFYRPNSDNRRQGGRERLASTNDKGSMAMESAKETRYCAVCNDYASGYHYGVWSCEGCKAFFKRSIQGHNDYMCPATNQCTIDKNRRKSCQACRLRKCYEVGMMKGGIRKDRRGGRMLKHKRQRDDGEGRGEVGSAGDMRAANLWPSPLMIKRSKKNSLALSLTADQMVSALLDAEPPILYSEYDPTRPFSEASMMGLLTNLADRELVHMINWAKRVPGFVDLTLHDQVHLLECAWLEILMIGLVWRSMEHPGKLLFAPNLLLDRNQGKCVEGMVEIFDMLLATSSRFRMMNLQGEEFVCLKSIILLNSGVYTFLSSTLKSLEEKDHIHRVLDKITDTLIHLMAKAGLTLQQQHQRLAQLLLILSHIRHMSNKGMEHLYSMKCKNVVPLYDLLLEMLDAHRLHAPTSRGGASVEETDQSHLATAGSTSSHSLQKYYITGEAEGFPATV
Experimental: as §1
MCF7 cells were plated in regular medium. After 24 hrs, cells were incubated in the presence of antiestrogens or fulvestrant for 4 hrs in phenol-red free medium without FBS. Cell lysates were prepared using RIPA buffer, and protein concentration was determined using the BCA Protein Assay Kit (PIERCE/ThermoFisher Scientific). Forty micrograms of total cell protein was resolved by 4-15% SDS-PAGE, transferred to a PVDF membrane and probed with antibody directed against ERα (1D5, 1:100, ThermoFisher cat #MA5-13191). RPL13A (dilution 1:1000, Invitrogen/ThermoFisher cat #PA5-58528) was used as loading control.

[3] = tested on: ER+ early breast cancer; conditions: cited from earlier work

C[C@]12CC[C@@H]3c4ccc(O)cc4CC[C@H]3[C@@H]1CC[C@@H]2O [E2, estradiol-17β, reference compound]
induction of ER-dependent luciferase activity (RLU relative to vehicle control) [1]: 12 fold

C[C@]12C[C@H](Oc3ccc(NC(=O)CCCCN4CCCCC4)c(F)c3)[C@@H]3c4ccc(O)cc4CC[C@H]3[C@@H]1CC[C@@H]2O [SERD140, N-(4-(((8S,9S,11S,13S,14S,17S)-3,17-Dihydroxy-13-methyl-7,8,9,11,12,13,14,15,16,17-deca-hydro-6H-cyclopenta[a]phenanthren-11-yl)oxy)-2-fluorophenyl)-5-(piperidin-1-yl)pentan-amide]
downregulation of ER protein (ERα protein levels) [2]: most effective in reducing ER protein levels

CC/C(=C(\c1ccccc1)c1ccc(OCCN(C)C)cc1)c1ccccc1 [Tamoxifen]
reduction in disease recurrence [3]: 39% | reduction in mortality [3]: 31%
